Where a SMILES comes first, the peptide text is derived from it. Bridges are numbered along the chain shown (N, C = ends). Where no end group is shown, it is not given here.
Key:
[1] = system: F11; assay: Ion permeability F11; assay type: cell-based, mouse; conditions: ions listed as permeant; - = none
[2] = system: Human embryonic kidney cells ATCC CRL-1573; assay: Cytotoxicity assay (CO-ADD), resazurin; assay type: cell-based; conditions: percentage growth inhibition, resazurin fluorescence, 37°C 5% CO2; mean ± SEM
Method: (§1) Antimicrobial and cytotoxicity assays were performed by CO-ADD (The Community for Antimicrobial Drug Discovery, Institute for Molecular Bioscience, The University of Queensland). […] Percentage growth inhibition was calculated using negative controls (media only) and positive controls (no peptide). For the hemolysis assays, human whole blood was washed three times with 3 volumes of 0.9% NaCl and then resuspended in 0.9% NaCl to a concentration of 0.5 × 10^8 cells/mL. Cells were incubated for 1 h at 37°C with or without the peptide. After incubation, plates were centrifuged at 1000 g for 10 min to pellet cells and debris and hemolysis determined by measuring the supernatant absorbance at 405 nm.

[3] = system: HEK; assay: Ion permeability HEK; assay type: cell-based, Human; conditions: ions listed as permeant; - = none
[4] = system: HEK293T cells; assay: Cell viability assay, resazurin; assay type: cell-based; conditions: 100 μM peptide
Method: (§2) In addition to the cytotoxicity assays performed by CO-ADD, we screened the synthetic peptides for toxicity in cell viability assays using HAP1, MM96L, and HEK293T cells. peptides were reconstituted in 100% DMSO then diluted in cell media (HAP1: IMDM (Sigma Aldrich) with 10% FBS and 1% Penicillin/Streptomycin (P/S); MM96L: RPMI (Gibco) with 10% FBS, 1% P/S and 1% GlutaMAX (Gibco); HEK293T: DMEM high glucose (Gibco), with 10% FBS and 1% P/S. Trypsinized cells ([…]) were seeded in each well of a 96-well plate. 0.01 to 1000 μM peptide was added to each well after 24 h, and the cells incubated for an additional 74 h. After incubation, the medium was aspirated from each well and 150 μL of fresh medium containing a 0.002% solution of resazurin (Sigma-Aldrich) was added to the wells and incubated for 4 h at 37 °C. The absorbance was measured at 570 nm using a microplate spectrophotometer (FLUOstar Omega, BMG Labtech, Germany). Percentage cell viability at concentrations of 10 and 100 μM peptide were compared with negative control by one-way ANOVA Dunnett’s multiple comparisons test (GraphPad Prism8).

[5] = system: MM96L cells (melanoma cell line); assay: Cell viability assay, resazurin; assay type: cell-based; conditions: 100 μM peptide
Method: as §2

[6] = system: HAP1 cells; assay: Cell viability assay, resazurin; assay type: cell-based
Method: as §2

[7] = system: Cryptococcus neoformans var. grubii H99; ATCC 208821; assay: Antifungal growth inhibition (CO-ADD); assay type: cell-based; conditions: for Max response ± SEM: percentage growth inhibition, difference in absorbance 600 and 570 nm after resazurin, 35°C 2 h, mean ± SEM; for MIC: sigmoidal dose-response fit of growth inhibition, resazurin read-out
Method: as §1

[8] = system: Candida albicans ATCC 90028; assay: Antifungal growth inhibition (CO-ADD); assay type: cell-based; conditions: absorbance at 530 nm; for Max response ± SEM: percentage growth inhibition, mean ± SEM; for MIC: sigmoidal dose-response fit of growth inhibition
Method: as §1

[9] = system: Human red blood cells; assay: Hemolysis assay (CO-ADD); assay type: cell-based; conditions: hemolysis, washed human blood 0.5 × 10^8 cells/mL in 0.9% NaCl, 1 h at 37°C, supernatant absorbance at 405 nm; mean ± SEM
Method: as §1

[10] = system: Escherichia coli ATCC 25922; assay: Antimicrobial growth inhibition (CO-ADD); assay type: cell-based; conditions: absorbance at 600 nm; for Max response ± SEM: percentage growth inhibition, mean ± SEM; for MIC: sigmoidal dose-response fit of growth inhibition
Method: as §1

[11] = system: Acinetobacter baumannii ATCC 19606; assay: Antimicrobial growth inhibition (CO-ADD); assay type: cell-based; conditions: absorbance at 600 nm; for Max response ± SEM: percentage growth inhibition, mean ± SEM; for MIC: sigmoidal dose-response fit of growth inhibition
Method: as §1

[12] = system: Klebsiella pneumoniae ATCC 700603; assay: Antimicrobial growth inhibition (CO-ADD); assay type: cell-based; conditions: absorbance at 600 nm; for Max response ± SEM: percentage growth inhibition, mean ± SEM; for MIC: sigmoidal dose-response fit of growth inhibition
Method: as §1

[13] = system: Pseudomonas aeruginosa ATCC 27853; assay: Antimicrobial growth inhibition (CO-ADD); assay type: cell-based; conditions: absorbance at 600 nm; for Max response ± SEM: percentage growth inhibition, mean ± SEM; for MIC: sigmoidal dose-response fit of growth inhibition
Method: as §1

[14] = system: Staphylococcus aureus ATCC 43300; assay: Antimicrobial growth inhibition (CO-ADD); assay type: cell-based; conditions: for Max response ± SEM: percentage growth inhibition, mean ± SEM; for Max response ± SEM / MIC: absorbance at 600 nm; for MIC: sigmoidal dose-response fit of growth inhibition
Method: as §1

[15] = system: panel of microbes; assay: Antimicrobial screening, summary over the panel of microbes; assay type: cell-based; conditions: all strains of the panel (for Rm54a and Rm55a: strains other than S. aureus)
Method: as §1

[16] = system: Female fruit flies (D. melanogaster strain Canton-S); assay: Fruit fly injection assay (lethality, paralysis, climbing); assay type: in vivo, Drosophila melanogaster
Method: Female fruit flies (D. melanogaster strain Canton-S) were injected four to six days post-emergence. Female flies were used because their larger size makes injection easier. Groups of eight female flies were assayed in triplicate for each dose tested. Injection needles were formed from glass capillary tubes (#3-000-203-G/X, Drummond, Birmingham, AL, USA) using a micropipette puller (Sutter Instrument Co. Model P-97), with the fine tip manually trimmed afterwards using scissors. Needles then were filled with mineral oil, connected to a Nanoliter 2000 microinjector ([…], Bensenville, IL USA) equipped with a foot pedal, and ~1 μL of peptide solution or water aspirated. Each group of flies were immobilized by cooling for approximately 2 min on ice, and then decanted on the top of the ‘injection stage’, a petri dish filled with ice. Under a dissecting microscope, each fly was carefully impaled on the lateral thorax behind the wing, and 50.6 nL of venom peptide or water was injected. After injection, each group of flies were returned to their 5 mL plastic tube at room temperature and their behavior observed.

[17] = system: House crickets (Acheta domesticus); assay: Insect incapacitation assay, house crickets; assay type: in vivo
Method: House crickets (A. domesticus; Pisces Live Food, QLD, Australia) (average mass 50 mg), were injected intra-abdominally with 40 nmol/g of each synthetic peptide (in 2 μL water). […] Lethality was assessed at 24 h. […] To calculate dose-response curves, a four-parameter Hill equation with variable Hill slope was fitted to the data (GraphPad Prism 8.02). All data are expressed as the mean ± standard error of the mean (SEM) and are representative of at least three independent data points. The percentage of crickets incapacitated by a dose of 40 nmol/g, was compared with negative control (water injection) by one-way ANOVA Dunnett’s multiple comparisons test (GraphPad Prism8).

[18] = system: F11 (mouse neuroblastoma × rat dorsal root ganglion (DRG) neuron hybrid) cells; assay: Calcium imaging of F11 cells (FLIPR); assay type: cell-based; conditions: increase in [Ca2+]i, max-min fluorescence over 300 s; read-out: EC50 (F11 cells, Table S2)
Method: F11 (mouse neuroblastoma × rat dorsal root ganglion (DRG) neuron hybrid) cells were cultured as previously described. Cells were maintained on Ham’s F12 media supplemented with 10 % fetal bovine serum, 100 μM hypoxanthine, 0.4 μM aminopterin, and 16 μM thymidine (Hybri-MaxTM, Sigma Aldrich). 384-well imaging plates (Corning, Lowell, MA, USA) were seeded 48 h prior to imaging resulting in 90 – 95% confluence at imaging. Cells were incubated for 30 min with Calcium 4 assay component A, as per the manufacturer’s instructions (Molecular Devices, Sunnyvale, CA) in physiological salt solution (PSS; composition in mM: 140 NaCl, 11.5 D-glucose, 5.9 KCl, 1.4 MgCl2, 1.2 NaH2PO4, 5 NaHCO3, 1.8 CaCl2, 10 HEPES) at 37°C. […] Signals were read every second for 10 s before, and 300 s after, the addition of peptides in PSS supplemented with 0.1% bovine serum albumin. All data represent mean ± SEM of a representative assay in triplicate. Fluorescence changes on peptide addition were compared to addition of negative control solution (0.1% BSA in PSS). The resulting maximum-minimum fluorescence in the 300 s period after peptide addition was recorded as the response.

LWPFLISLIPTVIDLARNL-NH2 [Rm54a]
ion permeability F11 [1]: Ca2+,Na+,Th+ | Max response ± SEM [2]: 95 ± 0 | ion permeability HEK [3]: Ca2+,Na+,Th+ | Cytotoxicity against HEK293T cells [4]: cytotoxic against HEK293T cells | Cytotoxicity against MM96L cells [5]: not the melanoma cell line MM96L | Cytotoxicity to HAP cells [6]: cytotoxic to HAP cells | HAP cell viability ([6]; 10 μM peptide, n = 3 per group): significantly reduced HAP cell viability | Max response ± SEM [7]: -15 ± 2 | Max response ± SEM [8]: 10 ± 3 | Max response ± SEM [9]: 95 ± 6 | Max response ± SEM [10]: 10 ± 1 | Max response ± SEM [11]: 22 ± 3 | Max response ± SEM [12]: 10 ± 2 | Max response ± SEM [13]: 16 ± 1 | Inhibition of S. aureus (in words) [14]: complete inhibition | Max response ± SEM [14]: 102 ± 1 | Growth inhibition over the microbial strains examined [15]: not affecting any of the other strains examined | Motor behavior (climbing assay) ([16]; 5 nmol/g injected, climbing assay 5 min after injection, significant versus control): disrupted motor behavior

VAPIVAMAGLGLFAAAVAGLDWLSKKV-NH2 [Rm1a]
ion permeability F11 [1]: Ca2+,Na+,Th+ | ion permeability HEK [3]: Ca2+,Na+,Th+ | Lethality in crickets at lowest dose tested ([17]; 40 pmol/g, intra-abdominal injection, lethality assessed at 24 h): ultimately lethal | Incapacitation of crickets ([17]; 40 nmol/g, intra-abdominal injection, observed 30 min): able to incapacitate crickets | Onset of incapacitation in crickets ([17]; 40 and 4 nmol/g, delayed at lower doses): immediate | PD50 30 min (dose required to paralyze 50% of crickets 30 min after injection) ([17]; intra-abdominal injection, n = 3 per group): 0.3 nmol/g | EC50 [18]: 5.7 µM | Max response ± SEM [7]: 36 ± 7 | MIC [7]: >12 µM | Max response ± SEM [8]: 67 ± 4 | MIC [8]: >12 µM | Max response ± SEM [10]: 9 ± 3 | MIC [10]: >12 µM | Max response ± SEM [11]: 3 ± 2 | MIC [11]: >12 µM | Max response ± SEM [12]: 0 ± 2 | MIC [12]: >12 µM | Max response ± SEM [13]: -2 ± 9 | MIC [13]: >12 µM | Max response ± SEM [14]: -19 ± 7 | MIC [14]: >12 µM | Flies dead ([16]; 50 pmol/g injected, mean ± SD): 25.0 ± 12.5% | Flies paralyzed ([16]; 50 pmol/g injected, mean ± SD): 95.8 ± 7.2% | Instant death of flies ([16]; 5 nmol/g injected, groups of eight female flies in triplicate, mean ± SD): 100 ± 0% | LD50 5 min (dose required to kill 50% of flies 5 min after injection) ([16]; D. melanogaster, 5 min after injection): 0.17 nmol/g | PD50 5 min (dose required to paralyze 50% of flies within 5 min) ([16]; D. melanogaster, within 5 min): 23 pmol/g

CC[C@H](C)[C@H](NC(=O)[C@H](CCC(=O)O)NC(=O)[C@H](CCC(N)=O)NC(=O)[C@H](CCSC)NC(=O)[C@H](CC(N)=O)NC(=O)[C@@H](N)CO)C(=O)N[C@@H](CCSC)C(=O)N[C@@H](CCCCN)C(=O)N[C@@H](CCCCN)C(=O)N[C@@H](CC(C)C)C(=O)N[C@H]1CSSC[C@@H](C(=O)N[C@@H](CCCCN)C(=O)N[C@@H](CCSC)C(=O)N[C@@H](CC(C)C)C(=O)NCC(=O)N[C@@H](CC(C)C)C(=O)O)NC(=O)[C@H](CCSC)NC(=O)[C@H](Cc2c[nH]c3ccccc23)NC(=O)[C@H](C)NC(=O)[C@@H]2CCCN2C(=O)[C@H](CCSC)NC(=O)[C@H](CCCCN)NC(=O)[C@H](CCCCN)NC(=O)[C@H](CC(=O)O)NC(=O)[C@H]([C@@H](C)O)NC1=O [Rm9a] (H-SNMQEIMKKLCTDKKMPAWMCKMLGL-OH; disulfide 11-21; N-terminus assumed)
Cytotoxicity against HEK293T cells [4]: cytotoxic to both HEK293T and MM96L cells | Cytotoxicity against MM96L cells [5]: cytotoxic to both HEK293T and MM96L cells | Max response ± SEM [7]: -86 ± 5 | MIC [7]: >11 µM | Max response ± SEM [8]: 1 ± 2 | MIC [8]: >11 µM | Max response ± SEM [10]: 3 ± 2 | MIC [10]: >11 µM | Max response ± SEM [11]: 9 ± 0 | MIC [11]: >11 µM | Max response ± SEM [12]: 5 ± 2 | MIC [12]: >11 µM | Max response ± SEM [13]: 5 ± 3 | MIC [13]: >11 µM | Max response ± SEM [14]: 3 ± 5 | MIC [14]: >11 µM | Growth inhibition over the microbial strains examined [15]: no inhibitory activity

From PMC9827630, “Intra-colony venom diversity contributes to maintaining eusociality in a cooperatively breeding ant” (BMC Biology, 2023)
